Measurements taken from DBAASP.
Converted amounts (≈) assume the structure as drawn. “And” between values parts separate entries of the source, which are not always exact repeats. Equal values may be shown once.

Assays:
Assay in all cases: ≥ marks a high value that may be exact or a test limit, other limits are often not marked, values filed in µg/mL are converted to µM
[1] = test system: Streptococcus pyogenes M1T1 5448
Escherichia coli BL21 = test system: Escherichia coli BL21
[2] = test system: Pseudomonas aeruginosa PAO1
[3] = test system: Escherichia coli ATCC 25726
[4] = test system: Staphylococcus aureus ATCC 25923
[5] = test system: Batrachochytrium dendrobatidis
[6] = test system: Staphylococcus aureus NCTC 8325
[7] = test system: Pseudomonas aeruginosa H1001
[8] = test system: Escherichia coli ATCC 25922
[9] = test system: Escherichia coli DSM 1103
[10] = test system: Staphylococcus aureus HNCMO 112011
[11] = test system: Staphylococcus epidermidis DSM 1798
[12] = test system: Escherichia coli ATCC 8739
[13] = test system: Staphylococcus aureus DSM 1104
[14] = test system: Pseudomonas aeruginosa DSM 1117
[15] = test system: Acinetobacter baumannii ATCC 17978

Structure (SMILES): CC[C@H](C)[C@H](NC(=O)[C@H](CCCCN)NC(=O)[C@H](C)NC(=O)[C@H](CCCN=C(N)N)NC(=O)[C@H](CCCCN)NC(=O)CNC(=O)[C@H](CCCCN)NC(=O)[C@H](CCC(=O)O)NC(=O)[C@H](CCC(N)=O)NC(=O)[C@@H](NC(=O)[C@@H](NC(=O)[C@H](CCCCN)NC(=O)[C@H](CCCCN)NC(=O)[C@H](CC(C)C)NC(=O)[C@H](Cc1ccccc1)NC(=O)[C@H](CCC(N)=O)NC(=O)[C@H](CCCN=C(N)N)NC(=O)[C@@H](NC(=O)[C@@H](NC(=O)[C@H](CCC(=O)O)NC(=O)[C@H](CCCCN)NC(=O)CNC(=O)[C@H](C)N)[C@@H](C)O)[C@@H](C)CC)[C@@H](C)O)[C@@H](C)CC)C(=O)N[C@@H](Cc1c[nH]c2ccccc12)C(=O)N[C@@H](Cc1c[nH]c2ccccc12)C(=O)O [AGKETIRQFLKKTIQEKGKRAKIWW]
- MIC [1]: 0.125 µM (≈ 0.381 µg/mL)
- MIC (Escherichia coli BL21): 2 µM (≈ 6.09 µg/mL)
- MIC [2]: 32 µM (≈ 97.4 µg/mL)

Structure (SMILES): CC[C@H](C)[C@H](NC(=O)[C@H](Cc1ccccc1)NC(=O)[C@H](C)NC(=O)[C@H](CCCCN)NC(=O)[C@H](CCCCN)NC(=O)CNC(=O)[C@H](CCCN=C(N)N)NC(=O)[C@H](CCCCN)NC(=O)[C@H](CCCN=C(N)N)NC(=O)[C@H](CC(C)C)NC(=O)[C@H](CCC(=O)O)NC(=O)[C@H](CCC(=O)O)NC(=O)[C@H](CC(C)C)NC(=O)[C@H](CC(C)C)NC(=O)[C@H](Cc1ccc(O)cc1)NC(=O)[C@H](CCCCN)NC(=O)[C@@H](NC(=O)[C@H](CC(C)C)NC(=O)[C@H](C)NC(=O)[C@H](CCC(N)=O)NC(=O)[C@H](CCCN=C(N)N)NC(=O)CNC(=O)[C@H](C)N)[C@@H](C)O)C(=O)N[C@@H](Cc1c[nH]c2ccccc12)C(=O)N[C@@H](Cc1c[nH]c2ccccc12)C(=O)O [AGRQALTKYLLEELRKRGKKAFIWW]
- MIC [1]: 2 µM (≈ 6.13 µg/mL)
- MIC (Escherichia coli BL21): 4 µM (≈ 12.3 µg/mL)
- MIC [2]: > 128 µM

Structure (SMILES): CC[C@H](C)[C@H](NC(=O)[C@H](Cc1c[nH]c2ccccc12)NC(=O)[C@H](CCC(N)=O)NC(=O)[C@H](CCCN=C(N)N)NC(=O)CNC(=O)[C@H](C)N)C(=O)N[C@@H](CCCCN)C(=O)N[C@@H](C)C(=O)N[C@@H](Cc1ccc(O)cc1)C(=O)N[C@@H](CC(C)C)C(=O)N[C@@H](CCCN=C(N)N)C(=O)N[C@@H](CCCN=C(N)N)C(=O)N[C@@H](CCC(=O)O)C(=O)N[C@H](C(=O)N[C@@H](CCCN=C(N)N)C(=O)N[C@@H](CCCCN)C(=O)N[C@@H](CCCN=C(N)N)C(=O)NCC(=O)N[C@@H](CCCN=C(N)N)C(=O)N[C@@H](CCCCN)C(=O)N[C@@H](C)C(=O)N[C@H](C(=O)N[C@H](C(=O)N[C@@H](C)C(=O)N[C@@H](Cc1c[nH]c2ccccc12)C(=O)O)[C@@H](C)CC)C(C)C)[C@@H](C)CC [AGRQWIKAYLRREIRKRGRKAVIAW]
- MIC [1]: 2 µM (≈ 6.17 µg/mL)
- MIC (Escherichia coli BL21): 2 µM (≈ 6.17 µg/mL)
- MIC [2]: 16 µM (≈ 49.3 µg/mL)

Structure (SMILES): CC[C@H](C)[C@H](NC(=O)[C@@H]1CCCN1C(=O)[C@H](CC(C)C)NC(=O)[C@@H](N)Cc1ccccc1)C(=O)N[C@H](C(=O)NCC(=O)N[C@@H](CCCCN)C(=O)N[C@@H](CC(C)C)C(=O)N[C@@H](CC(C)C)C(=O)N[C@@H](CO)C(=O)NCC(=O)N[C@@H](CC(C)C)C(=O)N[C@@H](CC(C)C)C(N)=O)C(C)C [FLPIVGKLLSGLL]
- MIC [3]: ≥ 128 µM
- MIC [4]: 8 µM (≈ 11 µg/mL)
- MIC [5]: ≥ 49.6 µM
- MIC [6]: ≥ 110 µM

Structure (SMILES): CC(C)C[C@H](NC(=O)[C@H](CCCCN)NC(=O)[C@H](CCC(N)=O)NC(=O)[C@H](CC(N)=O)NC(=O)[C@H](CC(C)C)NC(=O)[C@H](CC(=O)O)NC(=O)[C@H](CCC(=O)O)NC(=O)[C@@H]1CCCN1C(=O)[C@@H](NC(=O)[C@H](C)NC(=O)CN)[C@@H](C)O)C(=O)N[C@@H](CO)C(N)=O [GATPEDLNQKLS]
- MIC [7]: ≥ 196 µM

Structure (SMILES): CC[C@H](C)[C@H](NC(=O)[C@H](CCCCN)NC(=O)[C@H](CS)NC(=O)[C@H](C)NC(=O)[C@@H](NC(=O)[C@H](CC(C)C)NC(=O)[C@H](CC(N)=O)NC(=O)[C@@H](NC(=O)CNC(=O)[C@H](CC(C)C)NC(=O)[C@H](CCCNC(=N)N)NC(=O)[C@H](C)NC(=O)[C@H](CC(C)C)NC(=O)[C@H](CC(=O)O)NC(=O)[C@H](CCCCN)NC(=O)CNC(=O)[C@H](CC(C)C)NC(=O)CNC(=O)[C@H](CCCCN)NC(=O)[C@H](CO)NC(=O)[C@H](C)NC(=O)[C@H](Cc1ccccc1)NC(=O)[C@H](CCCCN)NC(=O)[C@H](C)NC(=O)[C@@H](NC(=O)CNC(=O)[C@H](CCCNC(=N)N)NC(=O)[C@H](Cc1ccccc1)NC(=O)[C@@H](NC(=O)[C@H](CO)NC(=O)[C@H](CO)NC(=O)[C@H](Cc1ccccc1)NC(=O)CN)[C@@H](C)CC)C(C)C)C(C)C)C(C)C)C(=O)N[C@@H](CO)C(=O)N[C@@H](CCCCN)C(=O)N[C@@H](CCC(N)=O)C(=O)N[C@@H](CS)C(=O)O [GFSSIFRGVAKFASKGLGKDLARLGVNLVACKISKQC]
- MIC [5]: ≥ 50 µM and 25 µM
- MIC [8]: 10 µM (≈ 38.7 µg/mL)

Structure (SMILES): CC[C@H](C)[C@H](NC(=O)[C@H](CCCCN)NC(=O)[C@H](CCCCN)NC(=O)[C@H](C)NC(=O)[C@H](CC(C)C)NC(=O)[C@H](C)NC(=O)[C@H](C)NC(=O)[C@H](CC(C)C)NC(=O)[C@H](C)NC(=O)[C@H](CCCCN)NC(=O)[C@H](CC(C)C)NC(=O)[C@H](CC(N)=O)NC(=O)[C@@H](NC(=O)[C@H](CCCCN)NC(=O)CNC(=O)[C@H](CC(C)C)NC(=O)[C@H](CC(C)C)NC(=O)[C@H](Cc1ccc(O)cc1)NC(=O)CNC(=O)[C@H](C)NC(=O)[C@H](CO)NC(=O)[C@H](CC(N)=O)NC(=O)[C@H](CC(C)C)NC(=O)[C@@H](NC(=O)[C@H](Cc1c[nH]c2ccccc12)NC(=O)CN)[C@@H](C)O)[C@@H](C)CC)C(=O)N[C@@H](CC(C)C)C(=O)O [GWTLNSAGYLLGKINLKALAALAKKIL]
- MIC [9]: ≥ 43 µM
- MIC [10]: 3.1 µM (≈ 8.81 µg/mL)
- MIC [11]: 5 µM (≈ 14.2 µg/mL)
- MIC [12]: 3.1 µM (≈ 8.81 µg/mL)
- MIC [13]: ≥ 43 µM
- MIC [14]: ≥ 86 µM
- MIC [15]: 3.1 µM (≈ 8.81 µg/mL)

Structure (SMILES): CSCC[C@H](NC(=O)[C@H](CCCCN)NC(=O)[C@H](Cc1ccccc1)NC(=O)[C@H](CC(N)=O)NC(=O)[C@H](CC(C)C)NC(=O)[C@@H]1CCCN1C(=O)[C@@H](N)CCCN=C(N)N)C(=O)N[C@@H](CC(C)C)C(=O)N[C@@H](CCCN=C(N)N)C(=O)N[C@@H](Cc1ccccc1)C(=O)N[C@@H](Cc1c[nH]c2ccccc12)C(=O)NCC(=O)N[C@@H](CCC(N)=O)C(=O)N[C@@H](CCC(N)=O)C(=O)N[C@@H](CCC(N)=O)C(=O)N[C@@H](CS)C(=O)N[C@@H](CCCN=C(N)N)C(=O)N[C@@H](CCCN=C(N)N)C(=O)N1CCC[C@H]1C(=O)N[C@@H](CC(C)C)C(=O)N[C@@H](Cc1ccc(O)cc1)C(=O)N[C@@H](CS)C(=O)N[C@@H](CCCN=C(N)N)C(=O)N[C@@H](CCCN=C(N)N)C(=O)N[C@@H](CCCN=C(N)N)C(=O)O [RPLNFKMLRFWGQQQCRRPLYCRRR]
- MIC [10]: 3.1 µM (≈ 10.3 µg/mL)
- MIC [12]: 3.1 µM (≈ 10.3 µg/mL)
- MIC [15]: 3.1 µM (≈ 10.3 µg/mL)

Structure (SMILES): CC[C@H](C)[C@H](NC(=O)[C@H](C)NC(=O)[C@@H](NC(=O)[C@H](CCCCN)NC(=O)[C@H](CCCCN)NC(=O)[C@H](Cc1cnc[nH]1)NC(=O)[C@@H](NC(=O)[C@@H](N)CCCN=C(N)N)C(C)C)[C@@H](C)CC)C(=O)N[C@@H](CO)C(=O)N[C@H](C(=O)O)C(C)C [RVHKKIAISV]
- MIC [7]: ≥ 174 µM

Structure (SMILES): CC[C@H](C)[C@H](NC(=O)[C@H](CCCN=C(N)N)NC(=O)[C@H](CCCN=C(N)N)NC(=O)[C@@H]1CCCN1C(=O)[C@H](CC(C)C)NC(=O)[C@H](CCCN=C(N)N)NC(=O)[C@@H]1CCCN1C(=O)[C@H](CCCN=C(N)N)NC(=O)[C@@H]1CCCN1C(=O)[C@H](CC(C)C)NC(=O)[C@H](Cc1ccc(O)cc1)NC(=O)[C@@H]1CCCN1C(=O)[C@@H]1CCCN1C(=O)[C@H](CCCCN)NC(=O)[C@H](CC(=O)O)NC(=O)[C@@H](N)C(C)C)C(=O)N[C@@H](Cc1ccc(O)cc1)C(=O)N[C@@H](CC(N)=O)C(=O)N[C@@H](CCCN=C(N)N)C(=O)NCC(=O)O [VDKPPYLPRPRLPRRIYNRG]
- MIC [7]: 0.11 µM (≈ 0.27 µg/mL)
